Assay results published in PubChem BioAssay AID330 (DTP/NCI, 2004).
Where “and” joins values, the source holds several entries; their conditions need not be identical. Equal values may be shown once. Inconclusive results and toxic doses are left out.

Tested on: P388 leukemia ip, CD2F1 mice, survival T/C
Assay: NCI In Vivo Anticancer Drug Screen. Data for tumor model P388 Leukemia (intraperitoneal) in CD2F1 (CDF1) mice
Settings: endpoint: median survival time, higher = longer survival
Summary of the method: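 Mice carrying the transplanted tumor received test compound or vehicle. Survival was recorded in each group, and the value is the treated-group measurement divided by that of the vehicle-treated control group.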

[1] = dose: 50.0 mg/kg/injection, schedule: Q01DX009 (ip), vehicle: Klucel (hydroxypropylcellulose) (HPC)
[2] = dose: 100.0 mg/kg/injection, schedule: Q01DX009 (ip), vehicle: Klucel (hydroxypropylcellulose) (HPC)
[3] = dose: 200.0 mg/kg/injection, schedule: Q01DX009 (ip), vehicle: Klucel (hydroxypropylcellulose) (HPC)
[4] = dose: 50.0 mg/kg/injection, schedule: Q01DX005 (ip), vehicle: saline with Tween-80
[5] = dose: 100.0 mg/kg/injection, schedule: Q01DX005 (ip), vehicle: saline with Tween-80
[6] = dose: 200.0 mg/kg/injection, schedule: Q01DX005 (ip), vehicle: saline with Tween-80
[7] = dose: 50.0 mg/kg/injection, schedule: Q01DX005 (ip), vehicle: Klucel (hydroxypropylcellulose) (HPC)
[8] = dose: 100.0 mg/kg/injection, schedule: Q01DX005 (ip), vehicle: Klucel (hydroxypropylcellulose) (HPC)
[9] = dose: 200.0 mg/kg/injection, schedule: Q01DX005 (ip), vehicle: Klucel (hydroxypropylcellulose) (HPC)
[10] = dose: 60.0 mg/kg/injection, schedule: Q01DX005 (ip), vehicle: saline with Tween-80
[11] = dose: 120.0 mg/kg/injection, schedule: Q01DX005 (ip), vehicle: saline with Tween-80
[12] = dose: 240.0 mg/kg/injection, schedule: Q01DX005 (ip), vehicle: saline with Tween-80
[13] = dose: 25.0 mg/kg/injection, schedule: Q01DX009 (ip), vehicle: saline with Tween-80
[14] = dose: 50.0 mg/kg/injection, schedule: Q01DX009 (ip), vehicle: saline with Tween-80
[15] = dose: 100.0 mg/kg/injection, schedule: Q01DX009 (ip), vehicle: saline with Tween-80
[16] = dose: 60.0 mg/kg/injection, schedule: Q01DX005 (ip), vehicle: Klucel (hydroxypropylcellulose) (HPC)
[17] = dose: 120.0 mg/kg/injection, schedule: Q01DX005 (ip), vehicle: Klucel (hydroxypropylcellulose) (HPC)
[18] = dose: 240.0 mg/kg/injection, schedule: Q01DX005 (ip), vehicle: Klucel (hydroxypropylcellulose) (HPC)

CSC(/C=N\O)=N/O
T/C [1]: 88 % of control
T/C [2]: 106 % of control
T/C [3]: 109 % of control

CN1C(=O)NC(C)(c2cccc(N(CCCl)CCCl)c2)C1=O (stereo unspecified)
T/C [1]: 158 % of control
T/C [2]: 177 % of control
T/C [3]: 160 % of control and 205 % of control

COC(=O)c1ccc(N(C)CC/C(CN)=N/NC(N)=O)cc1
T/C [4]: 99 % of control
T/C [5]: 91 % of control
T/C [6]: 87 % of control

COc1cc(CCN=Cc2cccc(OC)c2O)c([N+](=O)[O-])cc1OC
T/C [7]: 93 % of control
T/C [8]: 93 % of control
T/C [9]: 93 % of control

COc1cc(C(Nc2ncccn2)c2cc3c(cc2O)OCO3)cc(OC)c1OC (stereo unspecified)
T/C [10]: 100 % of control
T/C [11]: 92 % of control
T/C [12]: 90 % of control

S=C(N/N=C1\CSCc2ccccc21)Nc1cc(Cl)ccc1Cl
T/C (dose: 12.5 mg/kg/injection, schedule: Q01DX009 (ip), vehicle: saline with Tween-80): 87 % of control
T/C [13]: 90 % of control
T/C [14]: 100 % of control

NC(N)=O.NC(N)=O.NC(N)=O.NC(N)=O.NC(N)=O.NC(N)=O.[O-][Cl+3]([O-])([O-])O.[V]
T/C (dose: 25.0 mg/kg/injection, schedule: Q04DX003 (ip), vehicle: saline with Tween-80): 94 % of control
T/C (dose: 50.0 mg/kg/injection, schedule: Q04DX003 (ip), vehicle: saline with Tween-80): 97 % of control
T/C (dose: 100.0 mg/kg/injection, schedule: Q04DX003 (ip), vehicle: saline with Tween-80): 109 % of control

CC(C)(C)C(=O)CS(=O)(=O)CC(=O)C(C)(C)C
T/C [13]: 112 % of control
T/C [14]: 108 % of control
T/C [15]: 103 % of control

CC(C)(C)C(=O)OCn1cc2c(=O)[nH]cnc2n1
T/C [16]: 101 % of control
T/C [17]: 100 % of control
T/C [18]: 104 % of control

CCOc1c(N=Nc2ccccc2OC)c(C)nn1C(N)=S
T/C (dose: 3.75 mg/kg/injection, schedule: Q01DX005 (ip), vehicle: Klucel + Tween-80): 100 % of control
T/C (dose: 7.5 mg/kg/injection, schedule: Q01DX005 (ip), vehicle: Klucel + Tween-80): 94 % of control
T/C (dose: 15.0 mg/kg/injection, schedule: Q01DX005 (ip), vehicle: Klucel + Tween-80): 99 % of control and 105 % of control

[Cu+2].[O-]c1ccccc1C=NCC(O)CN=Cc1ccccc1[O-] (stereo unspecified)
T/C (dose: 3.75 mg/kg/injection, schedule: Q01DX005 (ip), vehicle: saline with Tween-80): 97 % of control
T/C (dose: 7.5 mg/kg/injection, schedule: Q01DX005 (ip), vehicle: saline with Tween-80): 104 % of control

CNC(=S)N/N=C(/C)CSCC(=O)OC
T/C (dose: 50.0 mg/kg/injection, schedule: Q01DX009 (ip), vehicle: saline): 100 % of control
T/C (dose: 100.0 mg/kg/injection, schedule: Q01DX009 (ip), vehicle: saline): 92 % of control
T/C (dose: 200.0 mg/kg/injection, schedule: Q01DX009 (ip), vehicle: saline): 91 % of control

O=C1CCC(N(CC#CCN(C2=NC(=O)CC2)c2ccccc2)c2ccccc2)=N1
T/C [16]: 103 % of control
T/C [17]: 100 % of control
T/C [18]: 97 % of control

COc1ccc(OC)c(NC(=O)OCc2ccc3c(c2)OCO3)c1
T/C [10]: 98 % of control
T/C [11]: 95 % of control
T/C [12]: 93 % of control

Nc1cc(Cl)cc2c1-c1ccc(Cl)cc1C2
T/C [7]: 93 % of control
T/C [8]: 93 % of control
T/C [9]: 94 % of control

Cc1ccccc1-n1c(=S)n(-c2ccc(Cl)cc2)c2nc3ccccc3nc1/c2=N/Nc1cc(Cl)ccc1Cl
T/C [4]: 95 % of control
T/C [5]: 92 % of control

CCCCCCCCCCCC(=O)OC1CCC2(C)C(=CCC3C2CCC2(C)C(C(C)CCC(CC)C(C)C)CCC32)C1 (stereo unspecified)
T/C [14]: 104 % of control
T/C [15]: 95 % of control
T/C (dose: 200.0 mg/kg/injection, schedule: Q01DX009 (ip), vehicle: saline with Tween-80): 90 % of control

COC(=O)NN(C(=O)OC)C1CCCC2C1c1ccc3ccccc3c1N(C(=O)OC)N2C(=O)OC (stereo unspecified)
T/C [16]: 107 % of control
T/C [17]: 100 % of control
T/C [18]: 109 % of control

COc1cc([C@@H]2OC[C@@H]3C(c4cc(OC)c5c(c4)OCO5)OC[C@@H]32)cc(OC)c1OC (stereo partly specified)
T/C (dose: 5.0 mg/kg/injection, schedule: Q01DX009 (ip), vehicle: saline + Tween-80 + alcohol): 102 % of control
T/C (dose: 10.0 mg/kg/injection, schedule: Q01DX009 (ip), vehicle: saline + Tween-80 + alcohol): 101 % of control
T/C (dose: 20.0 mg/kg/injection, schedule: Q01DX009 (ip), vehicle: saline + Tween-80 + alcohol): 105 % of control
T/C (dose: 40.0 mg/kg/injection, schedule: Q01DX009 (ip), vehicle: saline + Tween-80 + alcohol): 105 % of control

S=C1N(c2ccc(Br)cc2)C2=Nc3ccccc3SC(=C2N=Nc2ccccc2)N1c1ccc(Cl)cc1
T/C [4]: 94 % of control
T/C [5]: 90 % of control
T/C [6]: 93 % of control

[N-]=[N+]=Nc1ccccc1C(=O)NCCCNC(=O)c1ccccc1N=[N+]=[N-]
T/C (dose: 12.5 mg/kg/injection, schedule: Q01DX005 (ip), vehicle: saline with Tween-80): 91 % of control
T/C (dose: 25.0 mg/kg/injection, schedule: Q01DX005 (ip), vehicle: saline with Tween-80): 87 % of control
T/C [4]: 86 % of control

CC(C)(C(=O)O[Si](C)(C)C)/C(=C/[Si](C)(C)C)O[Si](C)(C)C
T/C (dose: 100.0 mg/kg/injection, schedule: Q01DX001 (ip), vehicle: saline with Tween-80): 103 % of control
T/C (dose: 200.0 mg/kg/injection, schedule: Q01DX001 (ip), vehicle: saline with Tween-80): 99 % of control
T/C (dose: 400.0 mg/kg/injection, schedule: Q01DX001 (ip), vehicle: saline with Tween-80): 102 % of control

CC1(C)COC2(OCC(COc3ccccc3)O2)C1O (stereo unspecified)
T/C [16]: 104 % of control
T/C [17]: 98 % of control
T/C [18]: 98 % of control

c1cc2c3c(cccc3c1)-c1nc3ccccc3nc1-2
T/C (dose: 25.0 mg/kg/injection, schedule: Q01DX009 (ip), vehicle: Klucel (hydroxypropylcellulose) (HPC)): 101 % of control
T/C [1]: 100 % of control
T/C [2]: 92 % of control
